Reference: patent US8916711B2, “Imidazothiazole-chalcone derivatives as potential anticancer agents and process for the preparation thereof” (Council of Scientific and Industrial Research, priority 2009, dated 2014)
Where two headings read alike, the source gives them in different places.

Assays:
Format in all cases: cell-based
NCI-H460 = assay: NCI in vitro cytotoxicity (SRB, 48 h), Non-small cell lung panel; details: Homo sapiens, 48 h exposure
CNS cancer cell lines = assay: NCI in vitro cytotoxicity, whole panel; details: Homo sapiens
MALME-3M = assay: NCI in vitro cytotoxicity (SRB, 48 h), Melanoma panel; details: Homo sapiens, 48 h exposure
CCRF-CEM = assay: NCI in vitro cytotoxicity (SRB, 48 h), Leukemia panel; details: Homo sapiens, 48 h exposure
SK-MEL-28 = assay: NCI in vitro cytotoxicity (SRB, 48 h), Melanoma panel; details: Homo sapiens; SK-MEL-28, Melanoma; 48 h exposure
KM12 = assay: NCI in vitro cytotoxicity (SRB, 48 h), Colon panel; details: Homo sapiens, 48 h exposure
NCI/ADR-RES = assay: NCI in vitro cytotoxicity (SRB, 48 h), Ovarian panel; details: Homo sapiens, 48 h exposure
OVCAR-5 = assay: as above; details: Homo sapiens; OVCAR-5, Ovarian; 48 h exposure
[1] = tested on: Ovarian cancer cell lines; assay: NCI in vitro cytotoxicity, whole panel; details: Homo sapiens
[2] = tested on: sixty human tumour cell lines; assay: NCI in vitro cytotoxicity, all panels
SF-539 = assay: NCI in vitro cytotoxicity (SRB, 48 h), CNS panel; details: Homo sapiens; SF-539, CNS; 48 h exposure
OVCAR-3 = assay: NCI in vitro cytotoxicity (SRB, 48 h), Ovarian panel; details: Homo sapiens; OVCAR-3, Ovarian; 48 h exposure
EKVX = assay: NCI in vitro cytotoxicity (SRB, 48 h), Non-small cell lung panel; details: Homo sapiens, 48 h exposure
Leukemia cell lines = assay: NCI in vitro cytotoxicity, whole panel; details: Homo sapiens
DU-145 = assay: NCI in vitro cytotoxicity (SRB, 48 h), Prostate panel; details: Homo sapiens; DU-145, Prostate; 48 h exposure
NCI-H23 = assay: NCI in vitro cytotoxicity (SRB, 48 h), Non-small cell lung panel; details: Homo sapiens, 48 h exposure
A549/ATCC = assay: as above; details: Homo sapiens, 48 h exposure
RXF 393 = assay: NCI in vitro cytotoxicity (SRB, 48 h), Renal panel; details: Homo sapiens; RXF 393, Renal; 48 h exposure
SF-295 = assay: NCI in vitro cytotoxicity (SRB, 48 h), CNS panel; details: Homo sapiens; SF-295, CNS; 48 h exposure
MDA-MB-468 = assay: NCI in vitro cytotoxicity (SRB, 48 h), Breast panel; details: Homo sapiens; MDA-MB-468, Breast; 48 h exposure
NCI-H226 = assay: NCI in vitro cytotoxicity (SRB, 48 h), Non-small cell lung panel; details: Homo sapiens, 48 h exposure
SK-MEL-2 = assay: NCI in vitro cytotoxicity (SRB, 48 h), Melanoma panel; details: Homo sapiens; SK-MEL-2, Melanoma; 48 h exposure
SR = assay: NCI in vitro cytotoxicity (SRB, 48 h), Leukemia panel; details: Homo sapiens, 48 h exposure
Experimental: (§1) The imidazothiazole-chalcone hybrids 7a, 7e, 7f, 8f and 19e have been tested against sixty human tumour cell lines derived from nine cancer types (leukemia, non-small cell lung cancer, colon cancer, CNS cancer, melanoma, ovarian cancer, renal cancer, prostate cancer and breast cancer) as per NCI protocol. For each compound, dose response curves for individual cell lines have been measured at a minimum of five concentrations at 10 fold dilutions. A protocol of 48 h continuous drug exposure has been used, and a sulforhodamine B (SRB) protein assay was used to estimate cell viability or growth. The concentration for 50% cell growth inhibition (GI50), total cell growth inhibition (TGI, 0% growth) and 50% cell death (LC50, […]) compared with the control has been calculated (Table-1).

HL-60(TB) = assay: as above; details: Homo sapiens, 48 h exposure
Experimental: as §1

ACHN = assay: NCI in vitro cytotoxicity (SRB, 48 h), Renal panel; details: Homo sapiens, 48 h exposure
HS 578T = assay: NCI in vitro cytotoxicity (SRB, 48 h), Breast panel; details: Homo sapiens, 48 h exposure
HCC-2998 = assay: NCI in vitro cytotoxicity (SRB, 48 h), Colon panel; details: Homo sapiens; HCC-2998, Colon; 48 h exposure
HOP-92 = assay: NCI in vitro cytotoxicity (SRB, 48 h), Non-small cell lung panel; details: Homo sapiens
TK-10 = assay: NCI in vitro cytotoxicity (SRB, 48 h), Renal panel; details: Homo sapiens; TK-10, Renal; 48 h exposure
[3] = tested on: Non-small-cell lung cancer cell lines; assay: NCI in vitro cytotoxicity, whole panel; details: Homo sapiens
UACC-25 = assay: NCI in vitro cytotoxicity (SRB, 48 h), Melanoma panel; details: Homo sapiens; UACC-25, Melanoma; 48 h exposure
MOLT-4 = assay: NCI in vitro cytotoxicity (SRB, 48 h), Leukemia panel; details: Homo sapiens; MOLT-4, Leukemia; 48 h exposure
NCI-H522 = assay: NCI in vitro cytotoxicity (SRB, 48 h), Non-small cell lung panel; details: Homo sapiens, 48 h exposure
HCT-15 = assay: NCI in vitro cytotoxicity (SRB, 48 h), Colon panel; details: Homo sapiens; HCT-15, Colon; 48 h exposure

COc1cc(C(=O)/C=C/c2c(-c3ccc(F)cc3)nc3sc(C)cn23)cc(OC)c1OC [Compound 19e, (E)-3-(6-(4-fluorophenyl)-2-methylimidazo[2,1-b]thiazol-5-yl)-1-(3,4,5-trimethoxyphenyl)prop-2-en-1-one]
GI50 (NCI-H460): 3.87 µM | GI50 (CNS cancer cell lines; CNS cell, exposure period of at least 48 hrs, read-out: GI50, range over CNS cell lines): 2.33 to 87.8 µM | GI50 (CNS cancer cell lines; CNS, average of six to eight cell lines, read-out: Log10 GI50 (converted)): 12.6 µM | CC50 (CNS cancer cell lines; CNS, average of six to eight cell lines, read-out: Log10 LC50 (converted)): ≥ 100 µM | GI50 (MALME-3M): 2.69 µM | GI50 (CCRF-CEM): 7.19 µM | GI50 (SK-MEL-28): 7.07 µM | GI50 (KM12): 3.63 µM | GI50 (NCI/ADR-RES): 2.63 µM | GI50 (OVCAR-5): > 100 µM | GI50 ([1]; Ovarian, average of six to eight cell lines, read-out: Log10 GI50 (converted)): 6.76 µM | CC50 ([1]; Ovarian, average of six to eight cell lines, read-out: Log10 LC50 (converted)): 100 µM | GI50 ([1]; exposure period of at least 48 hrs, read-out: GI50, range over ovarian cell lines): ≥ 2.28 µM | GI50 ([2]; Homo sapiens, sixty cell lines, nine panels, read-out: GI50 against sixty cell lines in nine cell panels): < 9 µM | Log10 TGI mean graph midpoint (MG_MID) ([2]; human tumour cell lines): −4.14 | in vitro cytotoxicity, in words ([2]; human tumour cell lines): significant cytotoxicity | GI50 ([2]; human tumour cell lines, read-out: Log10 GI50 mean graph midpoint (MG_MID) (converted)): 4.79 µM | CC50 ([2]; human tumour cell lines, read-out: Log10 LC50 mean graph midpoint (MG_MID) (converted)): 95.5 µM | GI50 (SF-539): 6.23 µM | GI50 (OVCAR-3): 3.66 µM | GI50 (EKVX): 2.29 µM | GI50 (Leukemia cell lines; Leukemia, average of six to eight cell lines, read-out: Log10 GI50 (converted)): 2.69 µM | CC50 (Leukemia cell lines; Leukemia, average of six to eight cell lines, read-out: Log10 LC50 (converted)): ≥ 100 µM | GI50 (Leukemia cell lines; exposure period of at least 48 hrs, read-out: GI50, range over leukemia cell lines): 0.8 to 7.19 µM | GI50 (DU-145): 7.52 µM | GI50 (NCI-H23): 2.24 µM | GI50 (A549/ATCC): 9.34 µM | GI50 (RXF 393): 5.75 µM | GI50 (SF-295): 2.33 µM | GI50 (MDA-MB-468): 2.38 µM | GI50 (NCI-H226): 9.58 µM | GI50 (SK-MEL-2): 5.75 µM | GI50 (SR): 0.8 µM | GI50 (HL-60(TB)): 2.8 µM | GI50 (ACHN): 5.83 µM | GI50 (HS 578T): 8.29 µM | GI50 (HCC-2998): 9.93 µM | GI50 (HOP-92; HOP-92, Non-small cell lung, 48 h exposure): 0.15 µM | GI50 (HOP-92; HOP-92, non-small cell lung): 0.15 µM | GI50 (TK-10): 28 µM | GI50 ([3]; Non-small-cell lung, average of six to eight cell lines, read-out: Log10 GI50 (converted)): 4.47 µM | CC50 ([3]; Non-small-cell lung, average of six to eight cell lines, read-out: Log10 LC50 (converted)): ≥ 100 µM | GI50 ([3]; exposure period of at least 48 hrs, read-out: GI50, range over lung cell lines): 0.15 to 85.1 µM | GI50 (UACC-25): 4.75 µM | GI50 (MOLT-4): 1.62 µM | GI50 (NCI-H522): 2.96 µM | GI50 (HCT-15): 3.76 µM
